From ChEMBL document CHEMBL1134752 (Bioorg Med Chem Lett, 2001)

Assays:
[1] = molecular target: Prostaglandin G/H synthase 1 (Homo sapiens, UniProt P23219); assay: In vitro inhibition of Prostaglandin G/H synthase 1 in human whole blood assay; assay type: tissue-based
[2] = molecular target: T1, Prostaglandin G/H synthase 2 (Homo sapiens, UniProt P35354); assay: In vitro inhibition of Prostaglandin G/H synthase 2 in human whole blood assay; assay type: tissue-based
T1 sequence (P35354 whole entry): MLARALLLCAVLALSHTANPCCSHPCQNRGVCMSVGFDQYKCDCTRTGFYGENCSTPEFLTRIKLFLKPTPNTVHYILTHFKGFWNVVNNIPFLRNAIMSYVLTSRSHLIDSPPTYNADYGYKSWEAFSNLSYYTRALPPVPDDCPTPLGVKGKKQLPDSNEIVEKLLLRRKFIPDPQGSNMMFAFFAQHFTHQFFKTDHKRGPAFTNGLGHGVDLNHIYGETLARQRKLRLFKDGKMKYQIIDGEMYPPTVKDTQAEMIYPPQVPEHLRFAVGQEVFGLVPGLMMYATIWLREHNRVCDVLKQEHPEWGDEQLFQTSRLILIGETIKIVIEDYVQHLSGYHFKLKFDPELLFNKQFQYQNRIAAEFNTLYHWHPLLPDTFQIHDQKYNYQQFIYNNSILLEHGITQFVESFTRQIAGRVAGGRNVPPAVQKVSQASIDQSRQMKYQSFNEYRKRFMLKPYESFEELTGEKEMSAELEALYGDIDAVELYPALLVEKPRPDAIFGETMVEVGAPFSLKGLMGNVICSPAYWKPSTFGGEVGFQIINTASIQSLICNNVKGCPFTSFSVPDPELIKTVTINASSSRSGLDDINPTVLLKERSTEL

[3] = Half-life in human; assay type: ADME, organism-based; settings: in vivo

Prostaglandin G/H synthase 1, sequence (P23219 whole entry): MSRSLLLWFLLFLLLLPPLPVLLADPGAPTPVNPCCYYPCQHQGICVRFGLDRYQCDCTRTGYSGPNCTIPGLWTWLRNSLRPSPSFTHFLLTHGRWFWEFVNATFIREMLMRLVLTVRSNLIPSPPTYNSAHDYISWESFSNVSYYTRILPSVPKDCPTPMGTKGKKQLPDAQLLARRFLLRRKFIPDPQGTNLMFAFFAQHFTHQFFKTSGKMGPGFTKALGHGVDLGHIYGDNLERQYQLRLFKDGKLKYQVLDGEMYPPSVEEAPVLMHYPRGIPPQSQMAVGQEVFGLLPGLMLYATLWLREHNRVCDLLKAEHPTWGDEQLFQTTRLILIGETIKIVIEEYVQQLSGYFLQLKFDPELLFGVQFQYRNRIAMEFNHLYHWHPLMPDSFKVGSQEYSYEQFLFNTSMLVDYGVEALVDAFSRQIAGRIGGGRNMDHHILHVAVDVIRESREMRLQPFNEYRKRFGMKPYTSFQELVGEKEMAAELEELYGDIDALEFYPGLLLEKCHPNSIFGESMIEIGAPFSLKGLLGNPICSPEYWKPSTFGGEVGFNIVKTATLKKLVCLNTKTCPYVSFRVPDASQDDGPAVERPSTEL

Row | SMILES | IC50 [1] [µM] | IC50 [2] [µM] | half-life [3] [h]
1 | CS(=O)(=O)c1ccc(-c2cc(Cl)cnc2-c2ccc(CO)nc2)cc1 | > 100 | > 33 | 
2 | CS(=O)(=O)c1ccc(-c2cc(Cl)cnc2-c2ccc(C(=O)O)nc2)cc1 | > 100 | 21 | 
3 | Cc1ccc(-c2ncc(Cl)cc2-c2ccc(S(C)(=O)=O)cc2)c[n+]1[O-] | > 100 | 18 | 
4 | CC(C)OC1=C(c2ccc(S(C)(=O)=O)cc2)C(C)(C)OC1=O |  |  | 64
5 | CS(=O)(=O)c1ccc(-c2cc(Cl)cnc2-c2ccc(CO[C@@H]3O[C@@H](C(=O)O)[C@@H](O)[C@H](O)[C@@H]3O)nc2)cc1 | > 100 | > 33 | 
6 | Cc1ccc(-c2ncc(Cl)cc2-c2ccc(S(C)(=O)=O)cc2)cn1 [ETORICOXIB] | > 100 |  | 
